Where two headings read alike, the source gives them in different places.
Tests used:
[1] = tested on: HeLa; assay: MTT antiproliferative assay, HeLa; format: cell-based, human; settings: Homo sapiens, HeLa; MTT, 72 h, cervical cancer cells; read-out: IC50 Values (μM) ± SEM HeLa
Procedure: (§1) The growth-inhibitory effects of the compounds were determined by MTT (3-(4,5-dimethylthiazol-2-yl)-2,5-diphenyltetrazolium bromide) assay on selected cell lines, including HeLa and SiHa (cervical cancers), MDA-MB-231 and MCF-7 (breast cancers), and A2780 ovarian cancer cells. All cell lines were purchased from the European Collection of Cell Cultures (Salisbury, UK) except SiHa, which was obtained from the American Tissue Culture Collection (Manassas, VA, USA). The cells were kept in minimum essential medium supplemented with 10% fetal bovine serum, 1% non-essential amino acids, and 1% penicillin-streptomycin-amphotericin-B at 37 °C in a humidified atmosphere containing 5% CO2. Media and supplements were obtained from Lonza Group Ltd., (Basel, Switzerland). Cancer cells were seeded onto 96-well plates (5000 cells/well), after an overnight incubation the test compounds were added in six concentrations (0.1, 0.3, 1.0, 3.0, 10.0, 30.0 µM) and incubated for 72 h under cell-culture condition. After the incubation, 20 μL of 5 mg/mL MTT solution was added to each well and incubated for a further 4 h. The medium was removed, and the precipitated formazan crystals were dissolved in DMSO for 30 min under shaking at 37 °C. The absorbance was measured at 545 nm with a microplate reader. Untreated cells were included as controls. Calculations were performed by means of the GraphPad Prism 5.01 software (GraphPad Software Inc., San Diego, CA, USA). At least two independent determinations were performed with 5 parallel wells for each condition.

[2] = tested on: SiHa; assay: MTT antiproliferative assay, SiHa; format: cell-based, human; settings: Homo sapiens, SiHa; MTT, 72 h, cervical cancer cells; read-out: IC50 Values (μM) ± SEM SiHa
Procedure: as §1

[3] = tested on: MCF-7; assay: MTT antiproliferative assay, MCF-7; format: cell-based, human; settings: MTT, 72 h, breast cancer cells, read-out: IC50 Values (μM) ± SEM MCF-7
Procedure: as §1

[4] = tested on: MDA-MB-231; assay: MTT antiproliferative assay, MDA-MB-231; format: cell-based, human; settings: MTT, 72 h, breast cancer cells, read-out: IC50 Values (μM) ± SEM MDA-MB-231
Procedure: as §1

[5] = tested on: A2780; assay: MTT antiproliferative assay, A2780; format: cell-based, human; settings: Homo sapiens, A2780; MTT, 72 h, ovarian cancer cells; read-out: IC50 Values (μM) ± SEM A2780
Procedure: as §1

[6] = tested on: K562; assay: MTS cell proliferation assay, K562; format: cell-based, human; settings: Homo sapiens, K562, 72 h; MTS, 3-day incubation, leukemia cells; read-out: IC50 Values (μM) ± SEM K562
Procedure: The human leukemic cell line K562 was grown in RPMI 1640 medium (Life Technology-Invitrogen by Thermo Fisher Scientific, Saint-Aubin, France) supplemented with 10% fetal calf serum (FCS), antibiotics (100 U/mL penicillin, 100 µg/mL streptomycin), and L-glutamine, (Eurobio, Les Ulis, France) at 37 °C, 5% CO2 in air. The MTS cell proliferation assay (Promega, Charbonnières-les-Bains, France) is a colorimetric assay system, which measures the transformation of a tetrazolium component (MTS) into formazan produced by the mitochondria of viable cells. Cells were washed twice in PBS (Phosphate Buffer Saline) and plated in quadruplicate into microtiter-plate wells in 100 μL culture media with or without our various compounds at increasing concentrations (0, 1, 5, 10, 20, and 50 μM) for 1, 2, and 3 days. After 3 h of incubation at 37 °C with 20 μL MTS/well, the plates were read using an ELISA microplate reader (Thermo, Electrocorporation, Waltham, MA, USA) at 490 nm. The amount of color produced was directly proportional to the number of viable cells. The results are expressed as the concentrations inhibiting cell growth by 50% after a 3-day incubation period. The 50% cytotoxic concentrations (CC50) were determined by linear regression analysis, expressed in μM ± SD (Microsoft Excel).

[7] = tested on: Fc-MYCT; assay: FRET-melting, Fc-MYCT; format: binding; settings: ligand 2 μM, DNA 0.2 μM, K+ conditions, pH 7.2
[8] = tested on: FK-RAST; assay: FRET-melting, FK-RAST; format: binding; settings: ligand 2 μM, DNA 0.2 μM, 10 mM KCl, 90 mM LiCl, pH 7.2
[9] = tested on: FBCL-2T; assay: FRET-melting, FBCL-2T; format: binding; settings: ligand 2 μM, DNA 0.2 μM, 10 mM KCl, 90 mM LiCl, pH 7.2
[10] = tested on: human telomeric sequence F21T; assay: FRET-melting, F21T; format: binding; settings: ligand 2 μM, DNA 0.2 μM, 10 mM KCl, 90 mM LiCl, pH 7.2
[11] = tested on: FdxT; assay: FRET-melting, duplex control FdxT; format: binding; settings: ligand 2 μM, DNA 0.2 μM, 10 mM KCl, 90 mM LiCl, pH 7.2, hairpin duplex
[12] = tested on: FK-RAST (DNA, G4) AGGGCGGTGTGGGAAGAGGGA; assay: FRET melting; settings: 10 mM K+, 90 mM Li+; 10 mM lithium cacodylate pH 7.2; 0.2 µM DNA, 2 µM compound
[13] = tested on: F21T (DNA, G4) GGGTTAGGGTTAGGGTTAGGG; assay: FRET melting; settings: 10 mM K+, 90 mM Li+; 10 mM lithium cacodylate pH 7.2; 0.2 µM DNA, 2 µM compound
[14] = tested on: Fc-MYCT (DNA, G4) GGGTGGGTAGGGTGGGTAA; assay: FRET melting; settings: 1 mM K+, 99 mM Li+ (table footnote says 10 mM KCl, 90 mM LiCl); 10 mM lithium cacodylate pH 7.2; 0.2 µM DNA, 2 µM compound

SMILES	IC50 [1] [µM]	IC50 [2] [µM]	IC50 ([3]; Homo sapiens, MCF7, 72 h) [µM]	IC50 [3] [µM]	IC50 ([4]; Homo sapiens, MDA-MB-231, 72 h) [µM]	IC50 [4] [µM]	IC50 [5] [µM]	IC50 [6] [µM]	ΔT1/2 (°C) Fc-MYCT [7] [°C]	ΔT1/2 (°C) FK-RAST [8] [°C]	ΔT1/2 (°C) FBCL-2T [9] [°C]	ΔT1/2 (°C) F21T [10] [°C]	ΔT1/2 (°C) FdxT [11] [°C]	ΔT1/2 [12] [°C]	ΔT1/2 [13] [°C]	ΔT1/2 [14] [°C]
CN(C)CCCNCc1ccc(-c2nc(-c3ccc(CNCCCN(C)C)cc3)c3c(-c4ccccc4)cccc3n2)cc1 [Compound 12a, 2,4-bis{4-[(3-dimethylaminopropyl)aminomethyl]phenyl}-5-phenylquinazoline]	1.36 ± 0.04	0.62 ± 0.12	1.12 to 1.24	1.12 ± 0.13	1.45	1.45 ± 0.14	2.6 ± 0.03	14 ± 0.2	9.3 ± 0.3	10.6 ± 0.6	7.4 ± 0.9	6.8 ± 0.8	0.9 ± 0.2	10.6 ± 0.6	6.8 ± 0.8	–
CN(C)CCCNCc1ccc(-c2cc(-c3ccc(CNCCCN(C)C)cc3)c3cccc(-c4ccccc4)c3n2)cc1 [Compound 13e, 2,4-bis{4-[(3-dimethylaminopropyl)aminomethyl]phenyl}-8-phenylquinoline]	1.28 ± 0.21	1.07 ± 0.45	1.12 ± 0.1	–	1.21 ± 0.03	–	1.5 ± 0.34	7 ± 0.1	5.5 ± 0.9	11.6 ± 1.4	8.3 ± 0.1	15.9 ± 0.4	0.2 ± 0.1	–	–	5.5 ± 0.9

— paper PMC10819771 (Pharmaceuticals, 2023)
